According to PMC9603170, “Protein Kinase C Inhibitors Reduce SARS-CoV-2 Replication in Cultured Cells” (Microbiology Spectrum, 2022):
Like-named read-outs stand apart in the source and are kept apart here.

Columns and labels:
BHK-21 cells = test: CCK8 cell viability assay in BHK-21 cells; type: cell-based, hamster; conditions: 24 h
Method: (§1) Cell viabilities were analyzed using cell counting kit 8 (CCK8) (catalog no. HY-K0301; MCE) according to the manufacturer’s instructions. Ten microliters of the CCK8 reagent was added to each well of a 96-well plate. After incubation at 37°C for 1 h, optical density (OD) values were measured at 450 nm using a BioTek instrument. The CC50 was calculated by nonlinear regression analysis.

A549-ACE2 cells = test: CCK8 cell viability assay in A549-ACE2 cells; type: cell-based, human
Method: as §1

wild-type SARS-CoV-2 [1] = test: Wild-type SARS-CoV-2 infection of A549-ACE2 cells, qRT-PCR of supernatant viral RNA; type: cell-based; conditions: 10 μM inhibitor, MOI 0.8, 24 h p.i.
wild-type SARS-CoV-2 [2] = type: cell-based; conditions: A549-ACE2; pretreated 1 h; MOI 0.8; 24 h p.i.; DMSO 20%
Huh7 cells = test: CCK8 cell viability assay in Huh7 cells; type: cell-based, human; conditions: human Huh7 cells; 24 h
Method: as §1

[3] = system: GFP- or Renilla luciferase-expressing plasmids; type: cell-based, hamster; conditions: BHK-21, 24 h posttransfection; for GFP levels vs DMSO-treated cells: Western blot
SARS-CoV-2 replicon [4] = test: microbe, parasite or virus in culture; type: cell-based; conditions: for IC50: BHK-21 cells, read-out: IC50, SARS-CoV-2 replicon luciferase activity
SARS-CoV-2 replicon [5] = test: microbe, parasite or virus in culture; type: cell-based; conditions: human Huh7 cells, read-out: IC50, SARS-CoV-2 replicon luciferase activity
SARS-CoV-2 pseudovirus = type: cell-based; conditions: pretreated 1 h, % of DMSO
[6] = system: Zika virus (ZIKV) replicon; test: ZIKV replicon luciferase assay in BHK-21 cells; type: cell-based; conditions: both 6 and 24 h posttransfection
Method: FIG 4 PKC inhibitors play an antiviral role during the early stage of SARS-CoV-2 replication. (A to E) Effect of PKC inhibitors on protein translation. BHK-21 cells were pretreated with DMSO or the indicated inhibitors for 1 h, followed by transfection with SARS-CoV-2 replicon RNA, GFP- or Renilla luciferase-expressing plasmids, or ZIKV replicon RNA. Luciferase assays or Western blot assays were performed at the indicated hours after transfection. MW, molecular weight; RLU, relative luciferase units. (F) Effect of PKC inhibitors on 3CL^pro activity. The protein activities were determined using a 2019 nCoV M^pro/3CL^pro inhibitor screening kit. SARS-CoV-2 3CL^pro, the substrate, and the inhibitors were incubated at 37°C for 5 min, and […] were measured at 490 nm using a multimode plate reader. […] P values were calculated by ANOVA with Dunnett’s multiple-comparison test or unpaired, two-tailed Student’s t tests (*, P < 0.05; **, P < 0.01; ***, P < 0.001; ****, P < 0.0001; NS, not significant).
To test whether these inhibitors specifically block viral protein translation, we compared the expression levels of ectopically expressed green fluorescent protein (GFP) or Renilla luciferase in the absence and presence of the PKC inhibitor. At 24 h posttransfection, the GFP protein levels or relative Renilla luciferase activities were determined by a Western blot or luciferase assay. […]

SARS-CoV-2 3CL^pro = target: T1, SARS-CoV-2 3CL^pro (Severe acute respiratory syndrome coronavirus 2, UniProt P0DTD1); type: biochemical; conditions: 37°C, 5 min incubation
T1 construct: One microliter of SARS-CoV-2 3CL^pro reagent; purchased Beyotime P0312S

[7] = CCK8 cell viability assay in BHK-21 cells; type: cell-based, hamster
Method: as §1

[8] = CCK8 cell viability assay in A549-ACE2 cells; type: cell-based, human; conditions: human
Method: as §1

[9] = CCK8 cell viability assay in Huh7 cells; type: cell-based, human
Method: as §1

[10] = BHK-21 cells, read-out: CC50 (CCK8 cell viability)
[11] = BHK-21, pretreated 1 h, […], vs DMSO
[12] = Severe acute respiratory syndrome coronavirus 2, pretreated 1 h, […]
[13] = Severe acute respiratory syndrome coronavirus 2, Huh-7, 24 h
[14] = human Huh7 cells, 24 h, read-out: CC50 (CCK8 cell viability)

SMILES: COc1ccc2c(c1)c(C1=C(c3c[nH]c4ccccc34)C(=O)NC1=O)cn2CCCN(C)C [Go 6983]
- CC50 (BHK-21 cells; [10]): 16.9 µM
- CC50 (A549-ACE2 cells): 50 µM
- viral RNA level in supernatant, fold lower than DMSO (wild-type SARS-CoV-2 [1]): about 12 fold
- percentage of N-positive cells (wild-type SARS-CoV-2 [2]): 12%
- CC50 (Huh7 cells): 24.9 µM
- Renilla luciferase activities vs DMSO-treated cells [3]: comparable
- GFP levels vs DMSO-treated cells [3]: comparable
- relative luciferase activity lower than that in DMSO-treated cells (SARS-CoV-2 replicon [4]): about 99%
- replicon luciferase activities at all tested time points vs DMSO (SARS-CoV-2 replicon [4]): constantly lower
- IC50 (SARS-CoV-2 replicon [4]; pretreated 1 h, […]): 0.087 µM
- IC50 (SARS-CoV-2 replicon [5]): 0.361 µM
- luciferase activity of pseudovirus relative to DMSO-treated cells (entry) (SARS-CoV-2 pseudovirus): about 35%
- replication levels of the ZIKV replicon [6]: barely affected

SMILES: CN(C)CCCn1cc(C2=C(c3c[nH]c4ccccc34)C(=O)NC2=O)c2ccccc21 [bisindolylmaleimide I]
- CC50 (BHK-21 cells; [10]): 15.9 µM
- CC50 (A549-ACE2 cells): 50.9 µM
- viral RNA level in supernatant, fold lower than DMSO (wild-type SARS-CoV-2 [1]): ~16 fold
- percentage of N-positive cells (wild-type SARS-CoV-2 [2]): 3%
- CC50 (Huh7 cells): 30 µM
- Renilla luciferase activities vs DMSO-treated cells [3]: comparable
- GFP levels vs DMSO-treated cells [3]: comparable
- relative luciferase activity lower than that in DMSO-treated cells (SARS-CoV-2 replicon [4]): ~96%
- replicon luciferase activities at all tested time points vs DMSO (SARS-CoV-2 replicon [4]): constantly lower
- IC50 (SARS-CoV-2 replicon [4]; pretreated 1 h, […]): 0.386 µM
- IC50 (SARS-CoV-2 replicon [5]): 0.413 µM
- luciferase activity of pseudovirus relative to DMSO-treated cells (entry) (SARS-CoV-2 pseudovirus): ~24%
- replication levels of the ZIKV replicon [6]: barely affected

SMILES: O=c1c2ccccc2[se]n1-c1ccccc1 [ebselen]
- SARS-CoV-2 3CLpro protease activity (SARS-CoV-2 3CL^pro): dramatically reduced
- replicon luciferase activity at 6 h (protein translation / polyprotein cleavage) (SARS-CoV-2 replicon [4]; [11]): reduced

SMILES: Cn1cc(C2=C(c3cn(C4CCN(Cc5ccccn5)CC4)c4ccccc34)C(=O)NC2=O)c2ccccc21 [enzastaurin]
- CC50 (BHK-21 cells; hamster): 160 µM
- CC50 at 24 h ([7]; hamster, CC50 (CCK8 cell viability)): > 160 µM
- CC50 [8]: 80 µM
- viral RNA level in supernatant, fold lower than DMSO (wild-type SARS-CoV-2 [1]): ~3 fold
- percentage of N-positive cells (wild-type SARS-CoV-2 [2]): 12%
- CC50 at 24 h ([9]; human): 86.4 µM
- relative luciferase activity lower than that in DMSO-treated cells (SARS-CoV-2 replicon [4]): ~92%
- replicon luciferase activities at all tested time points vs DMSO (SARS-CoV-2 replicon [4]): constantly lower
- IC50 (SARS-CoV-2 replicon [4]; [12]): 0.929 µM
- IC50 (SARS-CoV-2 replicon [5]; [13]): 0.93 µM
- luciferase activity of pseudovirus relative to DMSO-treated cells (entry) (SARS-CoV-2 pseudovirus): ~42%

SMILES: CCC(CC)COC(=O)[C@H](C)N[P@](=O)(OC[C@H]1O[C@@](C#N)(c2ccc3c(N)ncnn23)[C@H](O)[C@@H]1O)Oc1ccccc1 [remdesivir]
- replicon luciferase activity at 6 h (protein translation / polyprotein cleavage) (SARS-CoV-2 replicon [4]; [11]): did not alter
- replicon luciferase activity at 24 h (RNA synthesis) (SARS-CoV-2 replicon [4]; [11]): significantly reduced

SMILES: CC(=O)c1c(O)c(C)c(O)c(Cc2c(O)c3c(c(C(=O)/C=C/c4ccccc4)c2O)OC(C)(C)C=C3)c1O [rottlerin]
- CC50 at 24 h ([7]; hamster; BHK-21 cells; 24 h; read-out: CC50 (CCK8 cell viability)): 1.43 µM
- CC50 at 24 h [9, 14]: 4.46 µM
- IC50 (SARS-CoV-2 replicon [4]; [12]): 0.479 µM
- IC50 (SARS-CoV-2 replicon [5]; [13]): 0.33 µM

SMILES: CN1CCN(c2nc(C3=C(c4c[nH]c5ccccc45)C(=O)NC3=O)c3ccccc3n2)CC1 [sotrastaurin]
- CC50 at 24 h ([7]; hamster, BHK-21 cells; 24 h; read-out: CC50 (CCK8 cell viability)): 82.2 µM
- CC50 at 24 h [9, 14]: 50.8 µM
- relative luciferase activity lower than that in DMSO-treated cells (SARS-CoV-2 replicon [4]): ~89%
- replicon luciferase activities at all tested time points vs DMSO (SARS-CoV-2 replicon [4]): constantly lower
- IC50 (SARS-CoV-2 replicon [4]; [12]): 2.67 µM
- IC50 (SARS-CoV-2 replicon [5]; [13]): 1.9 µM
- luciferase activity of pseudovirus relative to DMSO-treated cells (entry) (SARS-CoV-2 pseudovirus): ~55%
